Measurements reported in patent US10604782B2, “High-throughput fluorescent screening assay for inhibitors of gram-negative bacterial iron uptake” (Kansas State University Research Foundation, priority 2015, dated 2020).
pIC50: −log10 of the molar value. Values after ≈ are worked out from the molar mass of the structure shown. Read-outs that look alike come from different tables or passages of the source.

Experiments:
[1] = system: killing of E. coli MG1655 by colicin B (FepA, TonB-dependent); assay type: cell-based, Escherichia coli
[2] = system: A. baumannii 17978; assay: Minimal inhibitory concentration assay in LB, A. baumannii; assay type: cell-based, Acinetobacter baumannii
[3] = system: TonB; assay type: cell-based, Escherichia coli
[4] = system: Fc utilization by E. coli OKN3 + pITS23 (transported by FhuA); assay: Siderophore nutrition test, Fc; assay type: cell-based, Escherichia coli
[5] = system: FeEnt utilization by E. coli OKN3 + pITS23 (FepA); assay: Siderophore nutrition test, FeEnt; assay type: cell-based, Escherichia coli; conditions: for growth halo phenotype in siderophore nutrition test, in words: 100 μM compound (FIG. 6A)
[6] = system: FeEnt utilization by A. baumannii; assay: FeEnt siderophore nutrition test in A. baumannii; assay type: cell-based, Acinetobacter baumannii
[7] = system: E. coli MG1655; assay: Minimal inhibitory concentration assay in LB; assay type: cell-based, Escherichia coli; conditions: two-fold dilutions up to […]
[8] = system: TonB-dependent FeEnt uptake through FepAS271C-FM; assay type: cell-based, Escherichia coli
[9] = system: TonB-dependent FeEnt uptake through FepA (E. coli OKN3/pITS23FepAS271C-FM); assay: microbe, parasite or virus in culture; assay type: cell-based, Escherichia coli; conditions: for pIC50: read-out: 50% Inhibition, Concentration (IC50)
[10] = E. coli OKN3 + pITS23, 50 μM Fc, 100 μM compound in DMSO, untreated 1.54 ± 0.105
[11] = E. coli OKN3 + pITS23, 50 μM FeEnt, 100 μM compound in DMSO, untreated 1.45 ± 0.123
[12] = A. baumannii, 50 μM FeEnt, 100 μM compound in DMSO, untreated 1.16 ± 0.065
[13] = Escherichia coli, […], cells pre-incubated 30 minutes at 37° C. with inhibitor
[14] = […], cells pre-incubated 30 minutes at 37° C. with inhibitor
[15] = percent killing of MG1655 by ColB in the presence of sub-toxic concentration of compound in DMSO, untreated 98.34 ± 2.38
[16] = Acinetobacter baumannii, 17978, read-out: MIC
[17] = Escherichia coli, MG1655, E. coli MG1655 in LB, dash = MIC >[…], read-out: MIC
[18] = halo increase >5% or no halo, killing prevented by >5%

Compound | Fc Halo [4, 10] [cm] | FeEnt Halo [5, 11] [cm] | FeEnt Halo [6, 12] [cm] | % Colicin B killing [1, 15] [%] | MIC [2, 16] [µM] | MIC [7, 17] [µM] | other results
O=C1C(Cl)=C(Cl)C(=O)C(Cl)=C1Cl [P-Chloranil] | 1.57 ± 0.059 | 1.51 ± 0.148 | 1.14 ± 0.015 |  |  |  | % Colicin B killing [1]: 93.0 ± 3.36%; MIC ([2]; A. baumannii 17978 in LB, two-fold dilutions up to […], […]): — (If MIC >512 μM, value not listed); differential impact on transport of FeEnt, Fc and ColB, in words [3]: inhibited ColB but not FeEnt or Fc transport; MIC ([7]; E. coli MG1655 in LB, […]): — (If MIC >512 μM, value not listed)
N#CC(C#N)=NNc1cccc(Cl)c1 [CCCP, carbonyl cyanide m-chlorophenylhydrazone] |  |  |  |  |  |  | fluorescence recovery (FeEnt uptake) in words ([8]; 96-well plate, 10 nM FeEnt, CCCP 20 uM, 50 min time course (FIG. 2B)): fully prevented fluorescence recovery; recovered fluorescence in words ([8]; 384-well plate format, increasing concentrations of CCCP (FIG. 3)): dose-responsive decrease in recovered fluorescence; pIC50 [9, 13]: 5.30; 100% Inhibition, Concentration (IC100) [9, 14]: 0.01 mM
COc1cccc(O)c1O [3-Methoxycatechol] | 1.60 ± 0.500 | 1.50 ± 0.100 | 1.12 ± 0.025 | 98.2 ± 2.27 | > 512 | > 512 | 
O=c1c2ccccc2[se]n1-c1ccccc1 [Ebselen] | 0 | 0 | 0 | 93.4 ± 2.25 | 32 (≈ 8.77 µg/mL) |  | MIC ([7]; E. coli MG1655 in LB, dash = MIC >[…], read-out: MIC): 128 µM (≈ 35.1 µg/mL)
O=[N+]([O-])c1ccc(O)c([N+](=O)[O-])c1 [DNP, 2,4-dinitrophenol] |  |  |  |  |  |  | pIC50 [9, 13]: 3.12; effect on FeEnt binding and transport in words ([9]; FeEnt plus energy poison added to cells (FIG. 1A)): did not affect binding but prevented transport; 100% Inhibition, Concentration (IC100) [9, 14]: 1.5 mM
Cc1cc(N)c2ccccc2[n+]1CCCCCCCCCC[n+]1c(C)cc(N)c2ccccc21 [Dequalinium Chloride] | 1.55 ± 0.131 | 1.43 ± 0.110 | 1.14 ± 0.017 | 98.7 ± 1.10 | > 512 | > 512 | 
Thimerosal |  |  |  |  |  |  | % Colicin B killing [1]: 98.6 ± 0.98%; MIC ([2]; read-out: MIC): 1 µM; inhibition in the secondary screens (FeEnt utilization, Fc utilization, ColB killing) [3]: inhibition in all three of the three secondary screens; Fc Halo [4]: 0 cm; FeEnt Halo [5]: 0 cm; FeEnt Halo [6]: 0 cm
O=c1cc(-c2ccccc2)oc2cc(O)c(O)c(O)c12 [Baicalein] | 1.65 ± 0.045 | 1.65 ± 0.050 | 1.23 ± 0.098 | 54.6 ± 13.2 | > 512 | > 512 | inhibition in the secondary screens (FeEnt utilization, Fc utilization, ColB killing) [3, 18]: inhibition in all three of the three secondary screens; growth halo phenotype in siderophore nutrition test, in words [5]: two unique halos
C[C@@](Cc1ccc(O)c(O)c1)(NN)C(=O)O [Carbidopa] | 1.65 ± 0.055 | 1.58 ± 0.089 | 1.10 ± 0.015 | 96.0 ± 2.0 | > 512 | > 512 | 
arsenate |  |  |  |  |  |  | 100% Inhibition, Concentration (IC100) [9]: 180 mM; pIC50 [9]: 1.05
N.N.O=C([O-])C1(C(=O)[O-])CCC1.[Pt+2] [Carboplatin] | 1.62 ± 0.015 | 1.54 ± 0.031 | 1.10 ± 0.050 | 100 ± 0.00 |  |  | MIC ([2]; A. baumannii 17978 in LB, two-fold dilutions up to […], dash = MIC >[…]): — (If MIC >512 μM, value not listed); MIC ([7]; E. coli MG1655 in LB, dash = MIC >[…]): — (If MIC >512 μM, value not listed)
O=c1oc2c(O)c(O)cc3c(=O)oc4c(O)c(O)cc1c4c23 [Ellagic acid] | 1.36 ± 0.197 | 1.61 ± 0.075 | 1.08 ± 0.041 | 82.9 ± 3.75 | 256 (≈ 77.4 µg/mL) | > 512 | inhibition in the secondary screens (FeEnt utilization, Fc utilization, ColB killing) [3, 18]: inhibitory in two of the three secondary assays; growth halo phenotype in siderophore nutrition test, in words [5]: two unique halos
CC(=O)[O-].CC(=O)[O-].[Cd+2] [Cadmium acetate] |  |  |  |  |  |  | % Colicin B killing [1]: 98.4 ± 0.43%; MIC ([2]; read-out: MIC): 256 µM; inhibition in the secondary screens (FeEnt utilization, Fc utilization, ColB killing) [3]: inhibitory in two of the three secondary assays; Fc Halo [4]: 2.08 ± 0.42 cm; FeEnt Halo [5]: 2.22 ± 0.076 cm; FeEnt Halo [6]: 0 cm
[N-]=[N+]=[N-] [Azide, azide] |  |  |  |  |  |  | 100% Inhibition, Concentration (IC100) [9]: 18 mM; pIC50 [9]: 2.05
Zinc pyrithione |  |  |  |  |  |  | % Colicin B killing [1]: 20.4 ± 5.90%; MIC ([2]; read-out: MIC): 16 µM; inhibition in the secondary screens (FeEnt utilization, Fc utilization, ColB killing) [3]: inhibition in all three of the three secondary screens; Fc Halo [4]: 0 cm; FeEnt Halo [5]: 0 cm; FeEnt Halo [6]: 0 cm
